We go through one compound from patent US5079265A, “Composition and methods for providing optimum bioavailability of the active ingredient 2-hydroxy-5-methyllaurophenoxime (HMLO)” (VEB Fahlberg-List Chemische und pharmazeutische Fabriken, priority 1989, dated 1992).

Series [1] is described as follows: Effect of different auxiliaries on the solubility of HMLO active ingredient in water at 293° K. The format is physicochemical. The note with it: for solubility: water, 293° K. As for the experimental part: Effect of Different Auxiliaries on the Solubility of HMLO Active Ingredient in Water at 293° K.
Series [2] can be described thus: In vivo absorption of HMLO active ingredient by rabbits after oral administration as a function of the auxiliaries used. The settings on record: 12 mg/kg. From the text: In Vivo Absorption of HMLO Active Ingredient by the Rabbits After Oral Administration as a Function of the Auxiliaries Used.
Series [3] is described as follows: Absorption of HMLO in vitro and in vivo in the presence of bile acids. The note with it: compared with pure active ingredient and known preparations. From the text:
This improvement is observed also in comparison with the oily preparation, although the same mechanism for affecting the absorption obviously forms the basis for this preparation.

The conditions of series [4]: cited from earlier work.

In brackets after ≈: the same amount, converted by molar mass.

What is called solubility is the concentration that dissolves in the medium under given conditions. High values mean much dissolved substance, low ones little dissolved substance.

Consider `CCCCCCCCCCCC(=NO)c1cc(C)ccc1O` [HMLO, 2-hydroxy-5-methyllaurophenoxime], for which, in series [1] (pure HMLO, no auxiliary), the Solubility in water entry is on record as “insoluble”. Also, the solubility turned out to be 0.13 mg/mL (≈ 426 µM) in series [1] (auxiliary Tween (R) 80 0.75%); 0.024 mg/mL (≈ 78.6 µM) in series [1] (auxiliary benzalkonium bromide 1.00%); 0.001 mg/mL (≈ 3.27 µM) in series [1] (auxiliary polyethylene glycol 6500 10.00%); 0.0023 mg/mL (≈ 7.53 µM) in series [1] (auxiliary propylene glycol 1.00%); 2.75 mg/mL (≈ 9000 µM) in series [1] (auxiliary sodium desoxycholate 0.75%). Besides, the Absorption entry in series [2] (bile acids as auxiliary, compared with oil) was “distinctly exceeded by the use of bile acids”; in series [2] (oil as auxiliary), “clearly affected by the use of oil as auxiliary”; in series [2] (without auxiliaries), “not absorbed to a measurable extent”; in series [3], “improved clearly in vitro and in vivo in the presence of bile acids”. Further, the “Side effects on long-term treatment” value in series [4] (oily preparation) is “occurrence of diarrhea”. Also, in series [4] (solutions and emulsions containing oils), the Bioavailability entry is given as “the bioavailability can be increased”.
